Results reported in PMC11959706, “Allatostatin-C signaling in the crab Carcinus maenas is implicated in the ecdysis program” (The Journal of Experimental Biology, 2025).
Entries after “also recorded” stand apart in the source; their conditions may differ. Bridge positions count the residues as written; N and C are the ends. Ends that are not written are not given here.

How the values were obtained:
[1] = test system: AST-CRd (TR71151); experiment: Aequorin luminescence receptor assay, CHO-K1-Aeq-Gα16 cells transiently expressing AST-CRd; format: cell-based, Carcinus maenas
Description: (§1) The transcriptome of neural tissue of C. maenas, which has been previously assembled ([Oliphant et al., 2018]), identified four putative AST-C receptor candidates: TR71151a-d ([Oliphant et al., 2018]). These were chemically synthesized with a modified 5′ Kozak sequence (GAATTCGCCACC) and cloned in frame into a pcDNA3.1(+) plasmid vector (Genscript, Piscataway, NJ, USA). Separate aliquots of OneShot TOP10® E. coli cells (Invitrogen, Paisley, UK) were transformed with the plasmids and grown on LB plates containing 100 µg ml^−1 ampicillin overnight at 37°C. Positive clones were cultured overnight in LB broth with 100 µg ml^−1 ampicillin at 37°C and plasmids extracted using a Qiagen Plasmid Midiprep kit according to the manufacturer's instructions. Purified plasmids were re-sequenced (MWG Eurofins, Ebersberg, Germany) and analyzed using Geneious 9.1.8 ([Kearse et al., 2012]).
Chinese hamster ovary (CHO-K1) cells containing stably expressed apoaequorin (Perkin Elmer, Boston, MA) and either Gα16 or Gq subunit (control cells) were cultured in Dulbecco's Modified Eagle Medium (DMEM) F-12 Nutrient Mixture Glutamax (Gibco®) supplemented with 10% fetal bovine serum (Gibco®). Cells were maintained in vented T75 flasks at 37°C in 5% CO2. Cells grown in a monolayer to approximately 60% confluency were transfected with pcDNA 3.1 constructs using FugeneHD® (Promega) according to the manufacturer's recommendations. Transfection medium was prepared by combining 800 µl Opti-MEM® (Gibco) with 10 µg vector and the cells further incubated overnight. Cells were detached from the culture flask by incubating for 10 min in 5 ml 0.2% EDTA in PBS, washed in 10 ml clear DMEM–F-12 containing L-glutamine and 15 mmol l^−1 HEPES, centrifuged (for 5 min at 260 g) and resuspended at a concentration of 5×10^6 cells ml^−1 in 0.2 µm filtered BSA medium (DMEM–F-12 containing L-glutamine, 15 mmol l^−1 HEPES and 0.1% BSA). Coelenterazine h (Invitrogen, Paisley, UK) was added to give a concentration of 5 µmol l^−1, and the cells incubated in the dark at room temperature with gentle rocking. Before the assay, cells were further diluted (10-fold) and incubated for 60 min before use. Dried aliquots of peptides were reconstituted in BSA medium, and 50 µl added in quadruplicate to a white 96-well plate (Optiplate®, Perkin Elmer). Cell suspensions were gently stirred and injected (50 µl per well) using a Mithras LB 940 microplate reader (Berthold Technologies, Bad Wildbad, Germany) and light emission (Ca^2+ response recorded for 30 s). Cells were then lysed by injection of 50 µl per well 0.3% Triton-X in BSA medium, and light emission recorded for a further 10 s to measure total Ca^2+ response. BSA medium was used for blank measurements (six replicates per plate) and transfection with empty vectors was used for negative controls. Data were analyzed using Mikrowin 2010 v5 (Mikrotek Laborsysteme, Overath, Germany) and SigmaPlot v15 (Systat Software, Grafiti, Slough, UK).

[2] = test system: semi-isolated heart preparations; experiment: Semi-isolated heart preparation bioassay; set-up: species or system Carcinus maenas; conditions: 10^−6 mol l^−1 in saline, 20°C, recorded about 2 min; four preparations
Description: To determine possible myotropic and/or myoinhbitory activity of AST-C, AST-CC and AST-CCC, inter-molt crabs (∼65 mm carapace width) were ice-anaesthetized and rapidly decerebrated before removing all limbs and the dorsal carapace to expose the heart and pericardial cavity. The preparation was then fitted into a bowl lined with tissue, to provide a stable saline-flooded environment. The heart was connected to a force transducer (MLT0210/A) via a micro-fishing hook (size 28) and fine nylon (0.08 mm) monofilament. Connection to a PC with Chart 4.0 software was via a Bridge Pod (ML301) and Powerlab 4/20 (AD Instruments, Castle Hill, NSW, Australia). Transducer gain was set at maximum sensitivity (200 μV). Heart preparations were initially perfused with Carcinus physiological saline ([Saver et al., 1999]) at room temperature (20°C). Once a stable output was achieved, hearts were then perfused by sequentially adding approximately 2 ml saline containing AST-C, AST-CC and AST-CCC (GenScript Biotech, Piscataway, NJ, USA), and finally adding CCAP as a positive control (all peptides were at a concentration of 10^−6 mol l^−1 in saline). Each peptide addition was followed by extensive washout with saline, recording heart rate and beat amplitude for approximately 2 min after application of each peptide.

[3] = test system: Y-organs; experiment: Y-organ in vitro bioassay of ecdysteroid synthesis (ecdysteroid RIA); format: cell-based, Carcinus maenas; conditions: native MIH 2 nmol l^−1, 24 h incubation, positive control
Description: To determine the possible activity of AST-C and/or AST-CC on ecdysteroid synthesis, Y-organs (YOs) were dissected from ice-anaesthetized crabs and used in the in vitro bioassay as detailed previously ([Webster, 1986]). Following 24 h incubations, culture medium was aspirated and snap frozen in liquid nitrogen prior to ecdysteroid RIA. YOs were sonicated in PBS, centrifuged (13,000 g for 5 min at room temperature) and assayed for protein concentration using a BCA protein kit (EMD Millipore, Burlington MA, USA). Protein concentrations (BSA standards) were used to normalize ecdysteroid synthesis between YO pairs.
Ecdysteroid RIAs were performed on 20 µl aliquots of culture medium using the following conditions: 100 μl 1:2000 anti-ecdysteroid serum HB-2E (a kind gift from R. D Watson, Alabama University), 100 µl H^−3 Ponasterone A [24, 25, 26, 27-3H (N), 3.5 TBq mmol^−1 (American Radiochemical Company, St Louis, MO, USA)] at 28,000 dpm per tube. 25-Deoxyecdysone (a kind gift from Prof. R. Lafont, Sorbonne University, Paris) was used as a standard (range 2500–19.5 pg per tube), and unknowns and standards were assayed in triplicate. Bound was separated from free using 50 µl per tube immobilized donkey anti-rabbit nitrocellulose suspension (Sac-Cel), as detailed for the AST-C RIA. Pellets were resuspended in 600 µl Hi-Safe 3 (Perkin Elmer) prior to counting. Using this RIA, both ecdysone and 25-deoxyecdysone (the two ecdysteroids synthesized by C. maenas YOs) were equally recognized.

[4] = test system: putative AST-C receptor candidates TR71151a-d other than AST-CR(d); experiment: Aequorin luminescence receptor assay, other putative AST-C receptor candidates; format: cell-based, Carcinus maenas; conditions: each candidate transiently expressed in CHO-K1-Aeq cells; 1µM peptide (Fig. S3)
Description: as §1, with “Positive clones were cultured overnight in LB broth with 100 µg ml^−1 ampicillin at 37°C and plasmids extracted using a Qiagen Plasmid Midiprep kit according to the manufacturer's instructions.” left out
Chinese hamster ovary (CHO-K1) cells containing stably expressed apoaequorin (Perkin Elmer, Boston, MA) and either Gα16 or Gq subunit (control cells) were cultured in Dulbecco's Modified Eagle Medium (DMEM) F-12 Nutrient Mixture Glutamax (Gibco®) supplemented with 10% fetal bovine serum (Gibco®). […] Cell suspensions were gently stirred and injected (50 µl per well) using a Mithras LB 940 microplate reader (Berthold Technologies, Bad Wildbad, Germany) and light emission (Ca^2+ response recorded for 30 s). Cells were then lysed by injection of 50 µl per well 0.3% Triton-X in BSA medium, and light emission recorded for a further 10 s to measure total Ca^2+ response. […]

## AGCKNFFWKTFTSC [somatostatin, vertebrate homolog/paralog of AST-C, reference compound]
[1]; 10, 1 µmol l^−1 peptide, quadruplicate
  Activation of AST-CRd at saturating doses: failed to activate; also recorded: without effect

## crustacean cardioactive peptide [CCAP, reference compound]
[2]
  Effect on heartbeat amplitude: increased amplitude
  Effect on heartbeat frequency (heart rate): more than doubled

## molt inhibiting hormone [reference compound]
[3]
  Effect on ecdysteroid synthesis by Y-organs: large inhibitory effect
[3]; listed as MIH
  Effect on ecdysteroid synthesis by Y-organs: full inhibition

## SYWKQCAFNAVSCF-NH2 (disulfide 6-13 (inferred)) [AST-CCC, C. maenas AST-C family neuropeptide, C-terminally amidated; synthetic (GenScript)]
[2]
  Effect on heartbeat amplitude: entirely unaffected
  Effect on heartbeat frequency (heart rate): entirely unaffected
[1]; 10^−6 mol l^−1
  Activation of AST-CRd at extremely high doses: slight activation
[1]; peptide at 10 µmol l^−1, quadruplicate
  Luminescence response relative to the maximum response elicited by 10 µmol l^−1 AST-CC: less than 20%
[4]
  Activation of the other candidate AST-C receptors: not activated
